In patent US20230201217A1 (priority 2019, published 2023):

Legend:
[1] = molecular target: T1, rat α3β4 nicotinic acetylcholine receptor (nAChR) (Rattus norvegicus, UniProt P04757+P12392); experiment: cell-based
T1 construct: expressed in transfected cells; host or cells: HEK 293 (ATCC CRL1573), transient, Lipofectamine 2000

[2] = tested on: Sprague Dawley rats; experiment: Modified Irwin test, pilot dose finding study, female rats; type: in vivo, rat; details: single oral dose 30-800 mg/kg
Protocol: Under the conditions of this study, the no-observed-effect level (NOEL) and no-observed-adverse-effect level (NOAEL) were considered to be 90 mg/kg and 400 mg/kg, respectively.

[3] = Toxicokinetics, 14-day oral gavage study in CD-1 mice; type: in vivo, mouse
Protocol: The relative metabolite concentrations were determined from plasma samples obtained on the last day of dosing in the 25 mg/kg/day group of animals using a UPLC/MS/MS method. Major metabolites were identified as M2 and M4, followed by M8 and M9. The parent 18-MC exposure was less than 1% of the total drug related material. No significant sex differences were observed.
All test article-treated animals underwent up-titration of dosage levels prior to reaching the maximum daily dose, which was administered for 14 consecutive days. […] The dose volume was 10 mL/kg for all groups. Groups 1 and 4 each consisted of 25 animals/sex and Groups 2-3 each consisted of 20 animals for each sex. Following 14 days of dose administration, 15 mice/sex/toxicology group were euthanized; the remaining 5, (10 for the control and high dose group) mice/sex/toxicology group were euthanized following a 14-day nondosing (recovery) period. Following the final blood collection (study day 13), all toxicokinetic animals (from a satellite group of 18 animals/sex/dose level) were euthanized.

[4] = tested on: cynomolgus monkeys; experiment: 14-day nasogastric gavage GLP toxicity study in cynomolgus monkeys; type: in vivo, cynomolgus monkey; details: for Bone marrow, femur: Depletion, mixed; number with observation / Liver: Hypertrophy, hepatocellular, panlobular; number with observation / Thymus: Depletion, lymphoid, cortex; number with observation: 3 examined
From the text: Assessments of neurobehavioral effects and general toxicity were based on mortality, functional observational battery (FOB) evaluations, clinical observations, body weight, and body temperature; ophthalmoscopic, electrocardiographic examinations; and anatomic and clinical pathology. The anatomical pathology evaluations included histopathology of a full list of tissues from all animals and a comprehensive evaluation of the central nervous system (including selected peripheral nerves) utilizing whole body perfusion and special stains. Bone marrow smears from all animals were evaluated microscopically. Complete differentials and myeloid-erythroid (ME) ratios were performed. Toxicokinetic assessment was conducted for the test article and metabolites.

T1 sequence (P04757 26-499): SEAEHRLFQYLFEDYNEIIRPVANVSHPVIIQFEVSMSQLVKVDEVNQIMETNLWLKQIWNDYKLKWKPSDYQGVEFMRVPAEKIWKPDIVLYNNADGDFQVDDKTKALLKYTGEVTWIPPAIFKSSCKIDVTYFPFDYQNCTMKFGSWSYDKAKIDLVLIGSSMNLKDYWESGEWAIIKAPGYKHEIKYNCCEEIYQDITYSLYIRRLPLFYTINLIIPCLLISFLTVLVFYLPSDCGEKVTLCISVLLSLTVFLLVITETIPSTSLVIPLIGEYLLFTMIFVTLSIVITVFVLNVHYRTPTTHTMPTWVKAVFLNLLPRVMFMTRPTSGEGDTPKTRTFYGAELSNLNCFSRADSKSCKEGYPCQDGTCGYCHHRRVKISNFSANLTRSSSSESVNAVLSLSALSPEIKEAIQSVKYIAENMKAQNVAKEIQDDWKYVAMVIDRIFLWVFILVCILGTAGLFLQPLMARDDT
T1 sequence (P12392 21-495): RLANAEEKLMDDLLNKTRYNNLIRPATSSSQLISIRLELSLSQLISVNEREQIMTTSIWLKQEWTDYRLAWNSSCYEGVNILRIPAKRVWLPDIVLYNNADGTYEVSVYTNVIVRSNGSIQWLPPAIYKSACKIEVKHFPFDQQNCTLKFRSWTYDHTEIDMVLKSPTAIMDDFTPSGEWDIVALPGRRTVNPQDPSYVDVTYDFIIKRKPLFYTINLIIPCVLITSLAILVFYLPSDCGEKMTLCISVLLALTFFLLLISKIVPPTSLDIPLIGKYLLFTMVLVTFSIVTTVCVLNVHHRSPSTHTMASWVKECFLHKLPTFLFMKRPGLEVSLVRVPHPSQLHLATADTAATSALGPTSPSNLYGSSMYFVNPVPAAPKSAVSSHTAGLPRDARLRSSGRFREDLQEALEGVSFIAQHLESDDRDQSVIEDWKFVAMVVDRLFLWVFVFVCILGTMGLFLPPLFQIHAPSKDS

COCCC1CC2CN3CCc4c([nH]c5ccccc45)C(C(=O)OC)(C2)C13.Cl (stereo not drawn) [18-MC HCl, 18-Methoxycoronaridine hydrochloride]
Max Inhibition 20-30 μM [1]: 98 ± 1% | Persistent Inhibition at 1 sec [1]: 88 ± 3% | no-observed-adverse-effect level (NOAEL) [2]: 400 mg/kg | no-observed-effect level (NOEL) [2]: 90 mg/kg | AUC(0-24) ([3]; Day 0, Female, 25 mg/kg/day): 77.8 ng·h/mL | Cmax ([3]; Day 0, Female, 25 mg/kg/day): 30.8 ng/mL | Tmax ([3]; Day 0, Female, 25 mg/kg/day): 30 min | AUC(0-24) ([3]; Day 0, Female, 50 mg/kg/day): 56.2 ng·h/mL | Cmax ([3]; Day 0, Female, 50 mg/kg/day): 23.7 ng/mL | Tmax ([3]; Day 0, Female, 50 mg/kg/day): 30 min | AUC(0-24) ([3]; Day 0, Female, 100 mg/kg/day): 187 ng·h/mL | Cmax ([3]; Day 0, Female, 100 mg/kg/day): 51.8 ng/mL | Tmax ([3]; Day 0, Female, 100 mg/kg/day): 60 min | AUC(0-24) ([3]; Day 0, Male, 25 mg/kg/day): 66.6 ng·h/mL | Cmax ([3]; Day 0, Male, 25 mg/kg/day): 19.4 ng/mL | Tmax ([3]; Day 0, Male, 25 mg/kg/day): 30 min | AUC(0-24) ([3]; Day 0, Male, 50 mg/kg/day): 108 ng·h/mL | Cmax ([3]; Day 0, Male, 50 mg/kg/day): 44.3 ng/mL | Tmax ([3]; Day 0, Male, 50 mg/kg/day): 30 min | AUC(0-24) ([3]; Day 0, Male, 100 mg/kg/day): 349 ng·h/mL | Cmax ([3]; Day 0, Male, 100 mg/kg/day): 131 ng/mL | Tmax ([3]; Day 0, Male, 100 mg/kg/day): 60 min | AUC(0-24) ([3]; Day 13, Female, 25 mg/kg/day): 54.5 ng·h/mL | Cmax ([3]; Day 13, Female, 25 mg/kg/day): 25.6 ng/mL | Tmax ([3]; Day 13, Female, 25 mg/kg/day): 30 min | AUC(0-24) ([3]; Day 13, Female, 50 mg/kg/day): 119 ng·h/mL | Cmax ([3]; Day 13, Female, 50 mg/kg/day): 49.9 ng/mL | Tmax ([3]; Day 13, Female, 50 mg/kg/day): 30 min | AUC(0-24) ([3]; Day 13, Female, 100 mg/kg/day): 188 ng·h/mL | Cmax ([3]; Day 13, Female, 100 mg/kg/day): 44.0 ng/mL | T1/2 ([3]; Day 13, Female, 100 mg/kg/day): 147 min | Tmax ([3]; Day 13, Female, 100 mg/kg/day): 30 min | AUC(0-24) ([3]; Day 13, Male, 25 mg/kg/day): 50.5 ng·h/mL | Cmax ([3]; Day 13, Male, 25 mg/kg/day): 23.6 ng/mL | Tmax ([3]; Day 13, Male, 25 mg/kg/day): 30 min | AUC(0-24) ([3]; Day 13, Male, 50 mg/kg/day): 164 ng·h/mL | Cmax ([3]; Day 13, Male, 50 mg/kg/day): 92.9 ng/mL | T1/2 ([3]; Day 13, Male, 50 mg/kg/day): 107 min | Tmax ([3]; Day 13, Male, 50 mg/kg/day): 30 min | AUC(0-24) ([3]; Day 13, Male, 100 mg/kg/day): 329 ng·h/mL | Cmax ([3]; Day 13, Male, 100 mg/kg/day): 136 ng/mL | T1/2 ([3]; Day 13, Male, 100 mg/kg/day): 116 min | Tmax ([3]; Day 13, Male, 100 mg/kg/day): 30 min | HED of well tolerated dose ([4]; 50 mg/kg/day): 16 mg/kg/day | Bone marrow, femur: Depletion, mixed, mild; number with observation ([4]; 50 mg/kg/day F): 0 | Bone marrow, femur: Depletion, mixed, minimal; number with observation ([4]; 50 mg/kg/day F): 0 | Bone marrow, femur: Depletion, mixed, moderate; number with observation ([4]; 50 mg/kg/day F): 0 | Bone marrow, rib: Depletion, mixed, mild; number with observation ([4]; 50 mg/kg/day F): 0 | Bone marrow, rib: Depletion, mixed, minimal; number with observation ([4]; 50 mg/kg/day F): 0 | Bone marrow, rib: Depletion, mixed, moderate; number with observation ([4]; 50 mg/kg/day F): 0 | Bone marrow, rib: Depletion, mixed; number with observation ([4]; 50 mg/kg/day F): 0 | Bone marrow, sternum: Depletion, mixed, mild; number with observation ([4]; 50 mg/kg/day F): 0 | Bone marrow, sternum: Depletion, mixed, minimal; number with observation ([4]; 50 mg/kg/day F): 0 | Bone marrow, sternum: Depletion, mixed, moderate; number with observation ([4]; 50 mg/kg/day F): 0 | Bone marrow, sternum: Depletion, mixed; number with observation ([4]; 50 mg/kg/day F): 0 | Liver: Hypertrophy, hepatocellular, panlobular, mild; number with observation ([4]; 50 mg/kg/day F): 3 | Liver: Hypertrophy, hepatocellular, panlobular, minimal; number with observation ([4]; 50 mg/kg/day F): 0 | Thymus: Depletion lymphoid, generalized, mild; number with observation ([4]; 50 mg/kg/day F): 1 | Thymus: Depletion lymphoid, generalized, moderate; number with observation ([4]; 50 mg/kg/day F): 0 | Thymus: Depletion lymphoid, generalized; number with observation ([4]; 50 mg/kg/day F): 1 | Thymus: Depletion, lymphoid, cortex, mild; number with observation ([4]; 50 mg/kg/day F): 0 | Thymus: Depletion, lymphoid, cortex, minimal; number with observation ([4]; 50 mg/kg/day F): 2 | Thymus: Depletion, lymphoid, cortex, moderate; number with observation ([4]; 50 mg/kg/day F): 0 | mean cumulative body gain (Days 1-14) ([4]; 50 mg/kg/day F): -0.08 kg | Bone marrow, femur: Depletion, mixed; number with observation ([4]; 50 mg/kg/day F): 0 | Liver: Hypertrophy, hepatocellular, panlobular; number with observation ([4]; 50 mg/kg/day F): 3 | Thymus: Depletion, lymphoid, cortex; number with observation ([4]; 50 mg/kg/day F): 2 | Bone marrow, femur: Depletion, mixed, mild; number with observation ([4]; 50 mg/kg/day M): 0 | Bone marrow, femur: Depletion, mixed, minimal; number with observation ([4]; 50 mg/kg/day M): 0 | Bone marrow, femur: Depletion, mixed, moderate; number with observation ([4]; 50 mg/kg/day M): 0 | Bone marrow, rib: Depletion, mixed, mild; number with observation ([4]; 50 mg/kg/day M): 0 | Bone marrow, rib: Depletion, mixed, minimal; number with observation ([4]; 50 mg/kg/day M): 0 | Bone marrow, rib: Depletion, mixed, moderate; number with observation ([4]; 50 mg/kg/day M): 0 | Bone marrow, rib: Depletion, mixed; number with observation ([4]; 50 mg/kg/day M): 0 | Bone marrow, sternum: Depletion, mixed, mild; number with observation ([4]; 50 mg/kg/day M): 0 | Bone marrow, sternum: Depletion, mixed, minimal; number with observation ([4]; 50 mg/kg/day M): 0 | Bone marrow, sternum: Depletion, mixed, moderate; number with observation ([4]; 50 mg/kg/day M): 0 | Bone marrow, sternum: Depletion, mixed; number with observation ([4]; 50 mg/kg/day M): 0 | Liver: Hypertrophy, hepatocellular, panlobular, mild; number with observation ([4]; 50 mg/kg/day M): 0 | Liver: Hypertrophy, hepatocellular, panlobular, minimal; number with observation ([4]; 50 mg/kg/day M): 0 | Thymus: Depletion lymphoid, generalized, mild; number with observation ([4]; 50 mg/kg/day M): 0 | Thymus: Depletion lymphoid, generalized, moderate; number with observation ([4]; 50 mg/kg/day M): 0 | Thymus: Depletion lymphoid, generalized; number with observation ([4]; 50 mg/kg/day M): 0 | Thymus: Depletion, lymphoid, cortex, mild; number with observation ([4]; 50 mg/kg/day M): 0 | Thymus: Depletion, lymphoid, cortex, minimal; number with observation ([4]; 50 mg/kg/day M): 2 | Thymus: Depletion, lymphoid, cortex, moderate; number with observation ([4]; 50 mg/kg/day M): 0 | mean cumulative body gain (Days 1-14) ([4]; 50 mg/kg/day M): -0.22 kg | Bone marrow, femur: Depletion, mixed; number with observation ([4]; 50 mg/kg/day M): 0 | Liver: Hypertrophy, hepatocellular, panlobular; number with observation ([4]; 50 mg/kg/day M): 0 | Thymus: Depletion, lymphoid, cortex; number with observation ([4]; 50 mg/kg/day M): 2 | Bone marrow, femur: Depletion, mixed, mild; number with observation ([4]; 150 mg/kg/day F): 0 | Bone marrow, femur: Depletion, mixed, minimal; number with observation ([4]; 150 mg/kg/day F): 0 | Bone marrow, femur: Depletion, mixed, moderate; number with observation ([4]; 150 mg/kg/day F): 0
